Reference: ChEMBL document CHEMBL4823263, “Discovery of 2-(3-(3-Carbamoylpiperidin-1-yl)phenoxy)acetic Acid Derivatives as Novel Small-Molecule Inhibitors of the β-Catenin/B-Cell Lymphoma 9 Protein-Protein Interaction” (J Med Chem, 2021)

How the values were obtained:
[1] = target: T1, beta-catenin-B-cell lymphoma 9 protein complex (Homo sapiens, UniProt P35222); assay: Inhibition of full length C-terminal 6-His-tagged beta-catenin (1 to 781 residues) (unknown origin) expressed in Escherichia coli BL21 (DE3)-N-terminal biotinylated human BCL9 (350 to 375 residues) protein-protein interaction incubated for 1 hr by Alphascreen assay
T1 sequence (P35222 whole entry): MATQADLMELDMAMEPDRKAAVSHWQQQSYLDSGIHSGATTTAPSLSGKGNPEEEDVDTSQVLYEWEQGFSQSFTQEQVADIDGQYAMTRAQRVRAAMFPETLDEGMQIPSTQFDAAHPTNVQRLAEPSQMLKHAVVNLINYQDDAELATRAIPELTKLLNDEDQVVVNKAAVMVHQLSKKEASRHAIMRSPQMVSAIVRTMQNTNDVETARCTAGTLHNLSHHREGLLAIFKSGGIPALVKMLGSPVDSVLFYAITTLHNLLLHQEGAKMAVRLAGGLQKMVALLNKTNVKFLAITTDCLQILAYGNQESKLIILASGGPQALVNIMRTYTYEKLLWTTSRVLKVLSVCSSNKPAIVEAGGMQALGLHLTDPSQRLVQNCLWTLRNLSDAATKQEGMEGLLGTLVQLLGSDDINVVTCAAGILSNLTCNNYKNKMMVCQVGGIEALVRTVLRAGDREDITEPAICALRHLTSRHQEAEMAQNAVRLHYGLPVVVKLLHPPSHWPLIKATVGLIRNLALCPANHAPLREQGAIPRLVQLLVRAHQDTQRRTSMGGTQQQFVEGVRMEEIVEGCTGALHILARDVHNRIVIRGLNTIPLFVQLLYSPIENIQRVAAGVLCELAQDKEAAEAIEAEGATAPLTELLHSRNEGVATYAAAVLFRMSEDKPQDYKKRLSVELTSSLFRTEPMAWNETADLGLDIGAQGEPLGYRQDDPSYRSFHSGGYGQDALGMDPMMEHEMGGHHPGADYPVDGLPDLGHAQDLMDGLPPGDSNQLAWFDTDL
T1 sequence (O00512 whole entry): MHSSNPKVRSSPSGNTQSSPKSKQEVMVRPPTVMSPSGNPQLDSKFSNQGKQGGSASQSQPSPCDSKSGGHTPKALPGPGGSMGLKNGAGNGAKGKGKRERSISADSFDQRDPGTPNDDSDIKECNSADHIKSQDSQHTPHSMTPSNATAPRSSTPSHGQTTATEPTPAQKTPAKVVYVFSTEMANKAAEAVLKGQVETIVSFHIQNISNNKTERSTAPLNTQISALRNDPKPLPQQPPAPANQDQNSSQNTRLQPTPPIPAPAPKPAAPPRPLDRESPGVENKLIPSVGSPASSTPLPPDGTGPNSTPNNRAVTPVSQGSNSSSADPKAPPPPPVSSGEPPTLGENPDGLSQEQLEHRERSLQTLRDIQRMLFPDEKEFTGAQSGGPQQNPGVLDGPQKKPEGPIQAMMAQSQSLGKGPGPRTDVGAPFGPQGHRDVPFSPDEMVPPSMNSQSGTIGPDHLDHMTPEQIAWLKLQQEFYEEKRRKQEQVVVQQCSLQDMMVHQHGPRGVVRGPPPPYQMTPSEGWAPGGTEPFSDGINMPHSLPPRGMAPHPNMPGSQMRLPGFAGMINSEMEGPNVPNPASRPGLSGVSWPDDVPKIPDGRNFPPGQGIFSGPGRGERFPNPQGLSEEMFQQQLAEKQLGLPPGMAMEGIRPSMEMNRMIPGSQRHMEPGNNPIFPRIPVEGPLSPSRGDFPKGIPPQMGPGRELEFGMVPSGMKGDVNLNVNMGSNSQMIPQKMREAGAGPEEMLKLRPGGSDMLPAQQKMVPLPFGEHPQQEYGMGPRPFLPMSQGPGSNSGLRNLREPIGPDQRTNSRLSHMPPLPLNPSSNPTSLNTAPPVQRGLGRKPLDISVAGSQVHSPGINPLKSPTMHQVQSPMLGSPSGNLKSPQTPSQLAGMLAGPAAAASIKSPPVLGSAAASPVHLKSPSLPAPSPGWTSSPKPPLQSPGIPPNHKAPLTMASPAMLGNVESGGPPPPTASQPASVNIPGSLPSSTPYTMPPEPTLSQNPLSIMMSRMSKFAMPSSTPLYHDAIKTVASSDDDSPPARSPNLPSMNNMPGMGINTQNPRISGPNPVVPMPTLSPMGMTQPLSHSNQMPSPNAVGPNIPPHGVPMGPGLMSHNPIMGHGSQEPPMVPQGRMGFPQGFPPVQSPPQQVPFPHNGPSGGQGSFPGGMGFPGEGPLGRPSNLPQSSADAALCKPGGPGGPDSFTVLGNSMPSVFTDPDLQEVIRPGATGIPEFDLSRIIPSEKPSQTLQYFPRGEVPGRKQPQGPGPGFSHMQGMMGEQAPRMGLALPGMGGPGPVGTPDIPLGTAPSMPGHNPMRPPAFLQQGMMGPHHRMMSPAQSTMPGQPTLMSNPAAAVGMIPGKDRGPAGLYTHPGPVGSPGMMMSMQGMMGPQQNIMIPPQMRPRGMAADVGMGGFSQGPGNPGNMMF

SW480 [2] = assay: Inhibition of Wnt/beta-catenin transactivation signalling in human SW480 cells harboring mutant tcf4 binding sites assessed as relative activity at 6.25 uM incubated for 24 hrs by FOPFlash luciferase assay relative to control; type: cell-based; design: scale not given: the % may be the effect or the level left
[3] = target: beta-catenin-B-cell lymphoma 9 protein complex (Homo sapiens) (UniProt P35222+O00512); assay: Disruption of full length beta-catenin/BCL9 interaction in human HCT116 cells incubated for 24 hrs by co-immunoprecipitation assay; type: cell-based; details: HCT-116
SW480 [4] = assay: Antiproliferative activity against human SW480 cells harboring empty pcDNA3.1 vector incubated for 72 hrs by MTS assay; type: functional, cell-based; details: SW480, 72 h

Compound: CC(C)(Oc1cccc(N2CCC[C@H](C(=O)N(Cc3ccc(-c4cccs4)cc3)C3CC3)C2)c1)C(=O)NS(=O)(=O)c1ccc(C#N)cc1
- IC50 [1]: 4.4 µM
- Activity (SW480 [2]): 97%
- Activity [3]: Dose-Dependent Effect
- IC50 (SW480 [4]): 19 µM
